# Laboratory results published in ChEMBL document CHEMBL6074685, “Design, synthesis and biological evaluation of novel diaryl-substituted fused nitrogen heterocycles as tubulin polymerization inhibitors to overcome multidrug resistance in vitro and in vivo” (Eur J Med Chem, 2025).
# The source made the active and inactive calls. No cut-off for these calls is given here.
# Assays:
# [1] = (§1) Inhibition of pig brain tubulin polymerization measured upto 20 mins by absorbance based assay; set-up: species or system Sus scrofa
# [2] = organism: Sus scrofa; test: as §1; conditions: dose 0.4-12 µM
# [3] = Toxicity in BALB/c mouse implanted with human A549/T cell assessed as red blood cell distribution width-cell size at 30 mg/kg, ip administered every 2 days and measured after 2 weeks (reference value: 12.1 fL); assay type: organism-based; conditions: in vivo, 336 h
# [4] = Toxicity in BALB/c mouse implanted with human A549/T cell assessed as platelet distribution width at 30 mg/kg, ip administered every 2 days and measured after 2 weeks (reference value: 15.3 fL); assay type: organism-based; conditions: in vivo, 336 h
# [5] = Toxicity in BALB/c mouse implanted with human A549/T cell assessed as monocyte count at 30 mg/kg, ip administered every 2 days and measured after 2 weeks (reference value: 30.6 %); assay type: organism-based; conditions: in vivo, 336 h
# [6] = tested on: A549; test: Induction of cell cycle arrest in human A549 cells assessed as accumulation of cells at G2/M phase by RNAse A/PI-staining based flow cytometric analysis; assay type: functional; conditions: dose 25-100 nM
# [7] = tested on: A549; test: Induction of apoptosis in human A549 cells at 50 nM incubated for 48 hrs by V-FITC/PI staining based flow cytometry analysis relative to control; assay type: functional
# [8] = Metabolic stability in human liver microsome assessed as half life measured upto 50 mins by LC-MS/MS analysis; assay type: ADME; conditions: liver microsomes
# [9] = Toxicity in BALB/c mouse implanted with human A549/T cell assessed as WBC count at 30 mg/kg, ip administered every 2 days and measured after 2 weeks (reference value: 1.3 10^9/L); assay type: organism-based; conditions: in vivo, 336 h
# [10] = tested on: A549; test: Induction of apoptosis in human A549 cells at 25 nM incubated for 48 hrs by V-FITC/PI staining based flow cytometry analysis relative to control; assay type: functional
# [11] = target: T1, Tubulin (Homo sapiens) (UniProt P68371+Q9H4B7+P0DPH7+P68366+Q13509+Q71U36+P04350+Q3ZCM7+P07437+P68363+Q9BQE3+Q6PEY2+Q13885+Q9BVA1+Q9BUF5); test: Disruption of microtubule network in human A549/T cell at 100 to 200 nM incubated for 24 hrs by immunofluorescence staining based confocal microscopy analysis; conditions: dose 100-200 nM
# [12] = Toxicity in BALB/c mouse implanted with human A549/T cell assessed as lymphocyte count at 30 mg/kg, ip administered every 2 days and measured after 2 weeks (reference value: […]); assay type: organism-based; conditions: in vivo, 336 h
# [13] = Toxicity in BALB/c mouse implanted with human A549/T cell assessed as MCH level at 30 mg/kg, ip administered every 2 days and measured after 2 weeks (reference value: 29.2 pg); assay type: organism-based; conditions: in vivo, 336 h
# [14] = Toxicity in BALB/c mouse implanted with human A549/T cell assessed as red blood cell distribution width-cell volume at 15 mg/kg, ip administered every 2 days and measured after 2 weeks (reference value: 25fL); assay type: organism-based; conditions: in vivo, 336 h
# [15] = Toxicity in BALB/c mouse implanted with human A549/T cell assessed as MCHC level at 30 mg/kg, ip administered every 2 days and measured after 2 weeks (reference value: 570 g/L); assay type: organism-based; conditions: in vivo, 336 h
# [16] = tested on: A549/TR; test: Downregulation of P-gp level in human A549/T cell measured after 48 hrs by immunoblotting analysis; assay type: functional, cell-based; conditions: dose 62.5-500 nM
# [17] = target: T1, Tubulin (Homo sapiens); test: Disruption of microtubule network in human A549 cells at 50 to 100 nM incubated for 24 hrs by immunofluorescence staining based confocal microscopy analysis; assay type: cell-based; conditions: dose 50-100 nM
# [18] = Resistance index, ratio of IC50 for human A549/T cells to IC50 for human A549 cells; assay type: functional
# [19] = Toxicity in BALB/c mouse implanted with human A549/T cell assessed as platelet count at 30 mg/kg, ip administered every 2 days and measured after 2 weeks (reference value: 539 […]); assay type: organism-based; conditions: in vivo, 336 h
# [20] = tested on: A549/TR; test: Effect on p-gp expression in human A549/T cell by immunoblotting analysis; assay type: functional, cell-based
# [21] = tested on: A549; test: Effect on p-gp expression in human A549 cells by immunoblotting analysis; assay type: functional, cell-based
# [22] = Aqueous solubility of the compound […] at pH 7.4 by HPLC analysis; assay type: physicochemical
# [23] = Toxicity in BALB/c mouse implanted with human A549/T cell assessed as red blood cell distribution width-cell volume at 30 mg/kg, ip administered every 2 days and measured after 2 weeks (reference value: 25fL); assay type: organism-based; conditions: in vivo, 336 h
# [24] = tested on: A549/TR; test: Induction of apoptosis in human A549/T cell at 125 nM incubated for 48 hrs by V-FITC/PI staining based flow cytometry analysis relative to control; assay type: functional
# [25] = Cytotoxicity against human MCF-10A cells assessed as inhibition of cell growth at 2 nM incubated for 48 hrs by MTT assay relative to control; assay type: toxicity, cell-based
# [26] = Toxicity in BALB/c mouse implanted with human A549/T cell assessed as MCH level at 15 mg/kg, ip administered every 2 days and measured after 2 weeks (reference value: 29.2 pg); assay type: organism-based; conditions: in vivo, 336 h
# [27] = target: T1, Tubulin (Homo sapiens); test: Disruption of microtubule network in human A549/T cell assessed as change in microtubule morphology at 100 to 200 nM incubated for 24 hrs by immunofluorescence staining based confocal microscopy analysis; conditions: dose 100-200 nM
# [28] = Cytotoxicity against human MCF-10A cells assessed as inhibition of cell growth at 100 nM incubated for 48 hrs by MTT assay relative to control; assay type: toxicity, cell-based
# [29] = Toxicity in BALB/c mouse implanted with human A549/T cell assessed as mean platelet volume at 30 mg/kg, ip administered every 2 days and measured after 2 weeks (reference value: 10.1 fL); assay type: organism-based; conditions: in vivo, 336 h
# [30] = Toxicity in BALB/c mouse implanted with human A549/T cell assessed as change in body weight at 15 mg/kg, ip administered every 2 days; assay type: organism-based; conditions: in vivo, 48 h, time 2 day
compound,measurement,setting,value
COc1ccc(-c2cc(-c3ccc(OC)c(OC)c3OC)c3nc[nH]c3c2)cc1N,IC50,[1],1.8 µM
same,inhibition,[2],Dose-dependent-effect
same,Activity,[3],12.3 fL
same,Activity,[4],16.9 fL
same,Activity,[5],23.4%
same,Activity,[6],Dose-dependent-effect
same,Activity,[7],34.2%
same,half-life,[8],1.25 h
same,Activity,[9],2.4 10^9/L
same,Activity,[10],15.47%
same,Activity,[11],Active
same,Activity,[12],1.32 10^9/L
same,Activity,[13],31.6 pg
same,Activity,[14],24 fL
same,Activity,[15],624 g/L
same,Activity,[16],Dose-dependent-effect
same,Activity,[17],Active
same,Ratio IC50,[18],2.47
same,Activity,[19],415 10^9/L
same,Activity,[20],Active
same,Activity,[21],inactive
same,solubility,[22],20.8 µg/mL
same,Activity,[23],25 fL
same,Activity,[24],54.01%
same,"inhibition at 48 h, 0.002 µM",[25],1%
same,Activity,[26],28.9 pg
same,Activity,[27],Active
same,"inhibition at 48 h, 0.1 µM",[28],47%
same,Activity,[29],10.2 fL
same,Activity,[30],Non-toxic
